In PubChem BioAssay AID493198 (Southern Research Specialized Biocontainment Screening …, 2011):
Activity calls are given as the source filed them. How the calls were made is not given here. Where a SMILES comes first, the peptide text is derived from it.

Key:
[1] = tested on: Mycobacterium tuberculosis H37Rv growth in 7H9 media; test: M. tuberculosis growth inhibition, dose response, H37Rv, purified and synthesized compounds (AID 493198); conditions: for IC90: 90% growth inhibition concentration
[2] = as above; conditions: Mycobacterium tuberculosis H37Rv growth in 7H9 media; at 100 µM (top of the series)

Row | SMILES | IC50 [1] | IC90 [1] | growth inhibition [2]
1 | Cc1ccc2c(c1)c(C1=c3ccccc3=NC1=O)c(O)n2C | < 200 nM | 1870 nM | 
2 | COC(=O)CCc1nc2c(C#N)c(-c3ccc(Cl)cc3)ccn2n1 | < 200 nM | 14000 nM | 
3 | O=C(CSc1nc2ccccc2c(=O)[nH]1)NCc1ccc(Cl)cc1 | < 200 nM | 929 nM | 
4 | c1ccc(/N=C2\N=C(Nc3ccccn3)c3ccccc32)nc1 | < 200 nM | < 200 nM | 
5 | CCOC(=O)COn1c2c(c3c4no[n+]([O-])c4ccc31)CCCC2 | 1580 nM | 3110 nM | 
6 | Cc1cccc(/C=C/C(=O)c2ccc([N+](=O)[O-])o2)c1 | < 200 nM | < 200 nM | 
7 | O=C(CSc1nc2ccccc2c(=O)[nH]1)NC1CCCCC1 | < 200 nM | < 200 nM | 
8 | O=C(NCC(c1cccs1)N1CCOCC1)c1cc([N+](=O)[O-])cc([N+](=O)[O-])c1 (centres undefined) | < 200 nM | < 200 nM | 
9 | CCc1ccc(/C=C2/C(=O)N(C)C(=S)N2CC(=O)OC)s1 | 2270 nM | 17700 nM | 
10 | S=c1nc[nH]c2nc[nH]c12 | 1280 nM | 1760 nM | 
11 | Cc1nc(SCC(=O)NC2CCCCC2)[nH]c(=O)c1C | < 200 nM | < 200 nM | 
12 | CCOC(=O)c1ccc(NC(=O)Cn2ncc(Cl)c(Cl)c2=O)cc1 | < 200 nM | 203 nM | 
13 | O=C(/C=C\c1cccs1)N1CCN(Cc2ccc3c(c2)OCO3)CC1 | 445 nM | 7480 nM | 
14 | CC(C)NC(=O)c1sc(=S)n2c1[nH]c(=O)c1ccc(C(=O)NCCc3ccc(Cl)cc3)cc12 | < 200 nM | < 200 nM | 
15 | COc1cc(NC(=O)C/C(C)=N/NC(=O)c2ccccn2)c(OC)cc1Cl | 1940 nM | 4880 nM | 
16 | CCOC(=O)COc1ccc(/C=C2\NC(=S)N(CC)C2=O)cc1 | 1310 nM | 5200 nM | 
17 | Oc1ccccc1/C=N/Nc1ccnc(SCc2ccccc2)n1 |  |  | 2.04% (inactive)
18 | CCOC(=O)CNC(=O)[C@H](Cc1ccccc1)NC(=O)OCc1ccccc1 (HELM PEPTIDE1{[O=C(OCc1ccccc1)[*:2]].F.G.[CCO[*:1]]}$$$$V2.0) | 1090 nM | 1860 nM | 
19 | CCC(C)Nc1ccc(NC(C)CC)cc1 (centres undefined) | 609 nM | 1660 nM | 
20 | CC(=NCc1ccc2c(c1)OCO2)C1=C(O)c2ccccc2C1=O | < 200 nM | 23100 nM | 
21 | O=C1C(Br)=Cc2cccc3cccc1c23 | < 200 nM | < 200 nM | 
22 | CNc1nc(SCc2ccccc2Cl)nc2c1CCCC2 | < 200 nM | 5050 nM | 
23 | COC(=O)C1CC(=O)N(c2ccc(OCc3ccccc3Cl)cc2)C1 (centres undefined) | < 200 nM | 18400 nM | 
24 | Cc1ccc(NC(=O)C2C3/C=C\CCCCC32)cc1C (centres undefined) | 1170 nM | 1840 nM | 
25 | Cc1nn2c(NCc3ccccn3)cc(C(C)C)nc2c1-c1ccccc1 | 1030 nM | 1560 nM | 
26 | O=C(/C=C/c1ccccc1)N1CCN(CCN2C(=O)c3cccc4cccc(c34)C2=O)CC1 | 3470 nM | 5320 nM | 
27 | COC(=O)c1cc(=O)n(-c2ccc(F)cc2)c(=Nc2ccc(F)cc2)s1 | < 200 nM | 1580 nM | 
28 | CCOC(=O)C(C)Sc1ncnc2c1nnn2-c1ccc(F)cc1 (centres undefined) | < 200 nM | 7770 nM | 
29 | Cc1ccc2ccc3ccc(C)nc3c2n1 | < 200 nM | < 200 nM | 
30 | COC(=O)C(C)Oc1ccc(-c2nccc(-c3ccccn3)n2)cc1 (centres undefined) | 1190 nM | 2920 nM | 
